Some results are limits rather than exact numbers.

Sequence of USP30 (Q70CQ3 57-517): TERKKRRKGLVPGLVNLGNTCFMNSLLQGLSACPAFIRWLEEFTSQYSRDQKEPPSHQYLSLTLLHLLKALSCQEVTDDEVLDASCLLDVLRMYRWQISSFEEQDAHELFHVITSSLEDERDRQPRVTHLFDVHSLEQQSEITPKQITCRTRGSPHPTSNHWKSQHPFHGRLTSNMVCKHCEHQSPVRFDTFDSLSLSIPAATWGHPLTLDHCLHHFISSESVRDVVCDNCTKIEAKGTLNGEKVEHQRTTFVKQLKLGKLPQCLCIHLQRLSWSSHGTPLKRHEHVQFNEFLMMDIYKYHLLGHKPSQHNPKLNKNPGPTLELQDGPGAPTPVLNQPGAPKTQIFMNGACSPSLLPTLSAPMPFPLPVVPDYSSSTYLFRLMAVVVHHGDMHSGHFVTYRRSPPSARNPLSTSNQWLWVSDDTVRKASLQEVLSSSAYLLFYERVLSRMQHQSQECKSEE

This test deals with USP30 (Homo sapiens (Human), UniProt Q70CQ3). Nature of the test: USP30 biochemical IC50 assay. The note with it: fluorescence polarisation, TAMRA labelled peptide linked to ubiquitin as substrate; enzyme and compound incubated 30 min at room temp; read-out: IC50 range. As for the experimental part:
Reactions were performed in duplicate in black 384 well plates (small volume, Greiner 784076) in a final reaction volume of 21 μl. Either 1 μl of 50% DMSO or diluted compound was added to the plate. USP30 was diluted in reaction buffer (40 mM Tris, pH 7.5, 0.005% Tween 20, 0.5 mg/ml BSA, 5 mM beta-mercaptoethanol) to the equivalent of 0.05 μl/well and 10 μl of diluted USP30 was added to the compound. Enzyme and compound were incubated for 30 min at room temp. Reactions were initiated by the addition of 50 nM of TAMRA labelled peptide linked to ubiquitin via an iso-peptide bond as fluorescence polarisation substrate. Reactions were read immediately after addition of substrate and following a 2 h incubation at room temperature. Readings were performed on a Pherastar Plus (BMG Labtech). λ Excitation 540 nm; λ Emission 590 nm.
As for `N#CN1CC(C(=O)Nc2nc3ccc(-c4cn[nH]c4)cc3s2)CC(F)(F)C1` (stereo not shown) [Example 59, N-(6-(1H-Pyrazol-4-yl)benzo[d]thiazol-2-yl)-1-cyano-5,5-difluoropiperidine-3-carboxamide], the IC50 (usually the point on the concentration scale where inhibition reaches its midpoint) was 1000 to 10000 nM.
Regarding `N#Cc1cccc(-c2cc(NC(=O)[C@H]3CN(C#N)CCO3)ncn2)c1` [Example 4, (R)-4-Cyano-N-(6-(3-cyanophenyl)pyrimidin-4-yl)morpholine-2-carboxamide], the IC50 was less than 100 nM.
Turning to `N#CN1CCO[C@@H](C(=O)Nc2ccc(-c3ccn[nH]3)cn2)C1` [Example 29, (R)-N-(5-(1H-Pyrazol-5-yl)pyridin-2-yl)-4-cyanomorpholine-2-carboxamide], the concentration for half-maximal inhibition (IC50) fell in the range of 1000 to 10000 nM.
For the compound `N#Cc1cccc(-c2ccnc(NC(=O)[C@H]3CN(C#N)CCO3)c2)c1` [Example 53, (R)-4-Cyano-N-(4-(3-cyanophenyl)pyridin-2-yl)morpholine-2-carboxamide], the IC50 is less than 100 nM.
The same measure for `N#Cc1cccc(-n2cnc(NC(=O)[C@@]3(F)CCCN(C#N)C3)c2)c1` [Example 79, (R)-1-Cyano-N-(1-(3-cyanophenyl)-1H-imidazol-4-yl)-3-fluoropiperidine-3-carboxamide]: 100 to 1000 nM; for `N#CN1CCO[C@@H](C(=O)Nc2cc(-c3cccc(Cl)c3)ncn2)C1` [Example 21, (R)-N-(6-(3-Chlorophenyl)-pyrimidin-4-yl)-4-cyanomorpholine-2-carboxamide]: 100 to 1000 nM.
For `N#Cc1cccc(-n2cc(NC(=O)[C@@]3(F)CCCN(C#N)C3)nn2)c1` [Example 82, (R)-1-Cyano-N-(1-(3-cyanophenyl)-1H-1,2,3-triazol-4-yl)-3-fluoropiperidine-3-carboxamide], the IC50 fell in the range of 100 to 1000 nM.
As for `N#CN1CCO[C@@H](C(=O)Nc2cc(-c3ccccc3)ccn2)C1` [Example 1, (R)-4-cyano-N-(4-phenylpyridin-2-yl)morpholine-2-carboxamide], the figure is 100 to 1000 nM; as for `N#CN1CCO[C@@H](C(=O)Nc2cc(-c3ccc(Cl)cc3)ncn2)C1` [Example 26, (R)-N-(6-(4-Chlorophenyl)-pyrimidin-4-yl)-4-cyanomorpholine-2-carboxamide], 100 to 1000 nM.
In the case of `COc1cccc(-c2cc(NC(=O)C3CN(C#N)CCO3)on2)c1` (stereo not shown) [Example 10, 4-Cyano-N-(3-(3-methoxyphe-nyl)isoxazol-5-yl)morpholine-2-carboxamide], the IC50 fell in the range of 1000 to 10000 nM.
The same measure for `N#Cc1ccc2cnc(NC(=O)[C@H]3CN(C#N)CCO3)cc2c1` [Example 65, (R)-4-Cyano-N-(6-cyanoisoquinolin-3-yl)morpholine-2-carboxamide]: 1000 to 10000 nM.
Consider `N#CN1CCC[C@H](C(=O)Nc2ncc(-c3ccccc3)s2)C1` [Example 56, (S)-1-Cyano-N-(5-phenylthiazol-2-yl)piperidine-3-carboxamide], for which the IC50 lay in the range of 1000 to 10000 nM.
As for `N#CN1CCOC(C(=O)Nc2cc(-c3ccccc3)[nH]n2)C1` (stereo not shown) [Example 11, 4-Cyano-N-(5-phenyl-1H-pyrazol-3-yl)morpholine-2-carboxamide], the figure is 1000 to 10000 nM.
Take `N#Cc1ccnc(N2CCC(NC(=O)[C@H]3CN(C#N)CCO3)C2)c1` (stereo partly drawn) [Example 66, (2R)-4-Cyano-N-(1-(4-cyanopyridin-2-yl)pyrrolidin-3-yl)morpholine-2-carboxamide]: the IC50 fell in the range of 1000 to 10000 nM.
The same measure for `CC(C)Oc1cccc(-c2cc(NC(=O)[C@H]3CN(C#N)CCO3)ncn2)c1` [Example 23, (R)-4-Cyano-N-(6-(3-isopropoxy-phenyl)pyrimidin-4-yl)morpholine-2-carboxamide]: 1000 to 10000 nM; for `N#CN1CCC[C@](F)(C(=O)Nc2cnc(-c3cccc4[nH]ncc34)cn2)C1` [Example 87, (R)—N-(5-(1H-Indazol-4-yl)pyrazin-2-yl)-1-cyano-3-fluoropiperidine-3-carboxamide]: less than 100 nM.
The same measure for `N#CN1CCCC(F)(C(=O)Nc2cc(-c3ccccc3)on2)C1` (stereo not shown) [Example 45, 1-Cyano-3-fluoro-N-(5-phenylisoxazol-3-yl)piperidine-3-carboxamide]: 100 to 1000 nM; for `N#Cc1cccc(-c2ccnc(NC(=O)[C@@]3(F)CCCN(C#N)C3)c2)c1` [Example 52, (R)-1-Cyano-N-(4-(3-cyanophenyl)pyridin-2-yl)-3-fluoropiperidine-3-carboxamide]: 100 to 1000 nM.
Regarding `N#CN1CCC[C@](F)(C(=O)Nc2ccc(-c3cccc4[nH]ncc34)cn2)C1` [Example 85, (R)—N-(5-(1H-Indazol-4-yl)pyridin-2-yl)-1-cyano-3-fluoropiperidine-3-carboxamide], the IC50 is less than 100 nM.
`N#CN1CCC[C@](F)(C(=O)Nc2ccc(-c3cccc4cn[nH]c34)cn2)C1` [Example 84, (R)—N-(5-(1H-Indazol-7-yl)pyridin-2-yl)-1-cyano-3-fluoropiperidine-3-carboxamide]: the IC50 was less than 100 nM.
On to `N#Cc1cccc(-c2ccnc(NC(=O)[C@H]3CCCN(C#N)C3)c2)c1` [Example 57, (S)-1-Cyano-N-(4-(3-cyanophenyl)pyridin-2-yl)piperidine-3-carboxamide], for which the IC50 lay within 1000 to 10000 nM.
The same measure for `CS(=O)(=O)N1CCN(C#N)CC1C(=O)Nc1ncc(-c2ccccc2)s1` (stereo not shown) [Example 71, 4-Cyano-1-(methylsulfonyl)-N-(5-phenylthiazol-2-yl)piperazine-2-carboxamide]: 1000 to 10000 nM; for `CCCOc1cc(NC(=O)C2CN(C#N)CCO2)ccc1-c1ccn[nH]1` (stereo not shown) [Example 3, 4-Cyano-N-(3-propoxy-4-(1H-pyrazol-5-yl)phenyl)morpholine-2-carboxamide]: 100 to 1000 nM; for `N#Cc1cc(F)cc(-c2cc(NC(=O)[C@H]3CN(C#N)CCO3)ncn2)c1` [Example 24, (R)-4-Cyano-N-(6-(3-cyano-5-fluoro-phenyl)pyrimidin-4-yl)morpholine-2-carboxamide]: 100 to 1000 nM.
The same measure for `N#CN1CCC[C@](F)(C(=O)Nc2ncc(-c3cccc4cn[nH]c34)cn2)C1` [Example 92, (R)—N-(5-(1H-Indazol-7-yl)pyrimidin-2-yl)-1-cyano-3-fluoropiperidine-3-carboxamide]: less than 100 nM; for `N#Cc1ccnc(-c2ccnc(NC(=O)C3CN(C#N)CCO3)c2)c1` (stereo not shown) [Example 14, 4-Cyano-N-(4-cyano-[2,4′-bipyridin]-2′-yl)morpholine-2-carboxamide]: 1000 to 10000 nM; for `N#CN1CCC[C@](F)(C(=O)Nc2ccc(-n3cccn3)cn2)C1` [Example 77, (R)—N-(5-(1H-Pyrazol-1-yl)pyridin-2-yl)-1-cyano-3-fluoropiperidine-3-carboxamide]: 100 to 1000 nM.
Turning to `N#CN1CCOC(C(=O)Nc2ccc(-c3ccccc3)cc2)C1` (stereo not shown) [Example 9, N-([1,1′-Biphenyl]-4-yl)-4-ycanomorpholine-2-carboxamide], the IC50 fell in the range of 1000 to 10000 nM.
As for `N#CN1CCO[C@H](C(=O)Nc2ncc(-c3ccccc3)s2)C1` [Example 33, (S)-4-Cyano-N-(5-phenylthiazol-2-yl)morpholine-2-carboxamide], the figure is 1000 to 10000 nM; as for `N#CN1CCCC(F)(C(=O)Nc2nc3ccc(-c4cn[nH]c4)cc3s2)C1` (stereo not shown) [Example 50, N-(6-(1H-Pyrazol-4-yl)benzo[d]thiazol-2-yl)-1-cyano-3-fluoropiperidine-3-carboxamide], 1000 to 10000 nM; as for `N#Cc1cccc(-c2cc(NC(=O)C3(F)CCCN(C#N)C3)no2)c1` (stereo not shown) [Example 64, 1-Cyano-N-(5-(3-cyanophenyl)isoxazol-3-yl)-3-fluoropiperidine-3-carboxamide], 100 to 1000 nM.

The values are drawn from patent publication US11370784B2 (MISSION THERAPEUTICS LIMITED, priority 2016, dated 2022).
